Laboratory results published in the NIST ThermoML archive (doi:10.1007/s10765-011-1087-7).

Key:
[1] = 101 kPa, Liquid; for viscosity: Capillary tube (Ostwald / Ubbelohde) method; for speed of sound: Pulse-echo method
[2] = refractive index (Na D-line) (dimensionless); conditions: 101.33 kPa, Liquid
[3] = xn = mol fraction of the nth substance listed; conditions: 101 kPa, Liquid, x1 = 1; for speed of sound: Pulse-echo method
[4] = refractive index (Na D-line) (dimensionless); xn = mol fraction of the nth substance listed; conditions: 101 kPa, Liquid, x1 = 1

Clc1ccccc1Cl [1,2-dichlorobenzene]
Conditions	mass density, [1] [kg/m3]	refractive index, [2]	speed of sound, [1] [m/s]	viscosity, [1] [mPa·s]
298.15 K	1300.3	1.546	1281.6	1.314
303.15 K	1294.72	1.544	1265.2	1.235
308.15 K	1289.13	1.541	1245.9	1.144

Clc1ccc(Cl)c(Cl)c1 [1,2,4-trichlorobenzene]
Conditions	mass density, [1] [kg/m3]	refractive index, [2]	speed of sound, [1] [m/s]	viscosity, [1] [mPa·s]
298.15 K	1448.41	1.548	1272	1.926
303.15 K	1442.43	1.546	1256.4	1.76
308.15 K	1436.45	1.543	1240.9	1.617

CCCCCCC(C)O (configuration not stated) [2-octanol]
Conditions	mass density, [1] [kg/m3]	refractive index, [2]	speed of sound, [1] [m/s]	viscosity, [1] [mPa·s]
298.15 K	816.39	1.4226	1307	6.566
303.15 K	812.58	1.4206	1289	5.178
308.15 K	808.74	1.4185	1271	4.162

Clc1cccc(Cl)c1 [1,3-dichlorobenzene]
Conditions	mass density, [1] [kg/m3]	refractive index, [2]	speed of sound, [1] [m/s]	viscosity, [1] [mPa·s]
298.15 K	1283.45	1.544	1255	1.014
303.15 K	1277.79	1.541	1238.4	0.946
308.15 K	1272.1	1.538	1221.9	0.891

Clc1cccc(Cl)c1 [1,3-dichlorobenzene] + CCCCCCC(C)O
Conditions	mass density, [3] [kg/m3]	refractive index, [4]	speed of sound, [3] [m/s]	viscosity, [3] [mPa·s]
298.15 K	1283.45	1.544	1255	1.014
303.15 K	1277.79	1.541	1238.4	0.946
308.15 K	1272.1	1.538	1221.9	0.891

Clc1ccccc1Cl [1,2-dichlorobenzene] + CCCCCCC(C)O
Conditions	mass density, [3] [kg/m3]	refractive index, [4]	speed of sound, [3] [m/s]	viscosity, [3] [mPa·s]
298.15 K	1300.3	1.546	1281.6	1.314
303.15 K	1294.72	1.544	1265.2	1.235
308.15 K	1289.13	1.541	1245.9	1.144
